Assay results taken from patent publication US20100256104A1, “NOVEL AMIDE COMPOUNDS” (ASTRAZENECA R&D, priority 2009, published 2010).

Target: T1, recombinant human GR (Homo sapiens, UniProt P04150)
T1 construct: purchased Panvera/Invitrogen P2812 (kit P2893)
T1 sequence (P04150 1-777): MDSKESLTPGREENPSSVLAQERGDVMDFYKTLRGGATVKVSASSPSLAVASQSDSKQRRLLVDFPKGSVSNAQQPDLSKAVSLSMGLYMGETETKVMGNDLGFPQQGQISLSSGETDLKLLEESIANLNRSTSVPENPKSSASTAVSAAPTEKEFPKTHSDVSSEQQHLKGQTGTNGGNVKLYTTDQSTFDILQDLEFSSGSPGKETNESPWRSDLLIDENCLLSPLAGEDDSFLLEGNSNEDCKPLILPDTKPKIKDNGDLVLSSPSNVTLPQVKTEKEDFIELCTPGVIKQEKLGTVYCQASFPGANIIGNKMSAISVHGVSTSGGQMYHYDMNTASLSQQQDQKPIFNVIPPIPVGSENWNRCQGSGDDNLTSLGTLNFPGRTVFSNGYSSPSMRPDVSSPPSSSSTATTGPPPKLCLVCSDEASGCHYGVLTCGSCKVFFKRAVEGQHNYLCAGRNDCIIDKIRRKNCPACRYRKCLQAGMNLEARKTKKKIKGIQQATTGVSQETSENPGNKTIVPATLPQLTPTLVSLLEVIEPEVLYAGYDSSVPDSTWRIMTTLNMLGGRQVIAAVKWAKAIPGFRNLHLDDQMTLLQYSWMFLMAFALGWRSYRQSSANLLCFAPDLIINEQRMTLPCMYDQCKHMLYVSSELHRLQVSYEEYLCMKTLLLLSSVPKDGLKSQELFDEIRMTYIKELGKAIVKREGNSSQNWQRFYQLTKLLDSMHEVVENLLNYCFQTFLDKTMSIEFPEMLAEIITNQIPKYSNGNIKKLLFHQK
Assay: Human Glucocorticoid Receptor (GR) Assay, fluorescence polarization competition with GS Red tracer
Settings: 2 hours at room temperature, 100% control 10 μM Dexamethasone, XLfit model 205, read-out: Inhibition of GR binding, IC50
Protocol: Human Glucocorticoid Receptor (GR) Assay The assay is based on a commercial kit from Panvera/Invitrogen (Part number P2893). The assay technology is fluorescence polarization. The kit utilises recombinant human GR (Panvera, Part number P2812), a Fluoromone™ labelled tracer (GS Red, Panvera, Part number P2894) and a Stabilizing Peptide 10X (Panvera, Part number P2815). The GR and Stabilizing Peptide reagents are stored at −70° C. while the GS Red is stored at −20° C. Also included in the kit are 1M DTT (Panvera, Part number P2325, stored at −20° C.) and GR Screening buffer 10X (Panvera, Part number P2814, stored at −70° C. initially but once thawed stored at room temperature). Avoid repeated freeze/thaws for all reagents. The GR Screening buffer 10X comprises 100 mM potassium phosphate, 200 mM sodium molybdate, 1 mM EDTA and 20% DMSO. Test compounds (1 μL) and controls (1 μL) in 100% DMSO were added to black polystyrene 384-well plates (Greiner low volume black flat-bottom, part number 784076). 0% control was 100% DMSO and 100% control was 10 μM Dexamethasone. Background solution (8 μL; assay buffer 10X, Stabilizing Peptide, DTT and ice cold MQ water) was added to the background wells. GS Red solution (7 μL; assay buffer 10X, Stabilizing Peptide, DTT, GS Red and ice cold water) was added to all wells except background wells. GR solution (7 μL; assay buffer 10X, Stabilizing Peptide, DTT, GR and ice cold water) was added to all wells. The plate was sealed and incubated in a dark at room temperature for 2 hours. The plate was read in an Analyst plate reader (LJL Biosystems/Molecular Devices Corporation) or other similar plate reader capable of recording fluorescence polarization (excitation wavelength 530 nm, emission wavelength 590 nm and a dichroic mirror at 561 nm).

Structure (SMILES) | IC50 [nM]
COCC(=O)O[C@]1(C(=O)SCF)[C@H](C)C[C@H]2[C@@H]3CCC4=Cc5c(cnn5-c5cccc(C(=O)N[C@H](C)C(N)=O)c5)C[C@]4(C)[C@@]3(F)[C@@H](O)C[C@@]21C [Example 29, (1R,2R,3aS,3bS, 10aS,10bR,11S,12aS)-7-(3-{[(1R)-2-amino-1-methyl-2-oxoethyl]carbamoyl}phenyl)-10b-fluoro-1-{[(fluoromethyl)-sulfanyl]carbonyl}-11-hydroxy-2,10a,12a-trimethyl-1,2,3,3a,3b,4,5,7,10, 10a,10b,11,12,12a-tetradecahydrocyclo-penta[5,6]naphtho [1,2-f]indazol-1-yl methoxyacetate] | 2.6
C[C@H]1C[C@@H]2[C@H]([C@@H](O)C[C@@]3(C)[C@H]2CC[C@]3(OC(=O)[C@H]2CCCO2)C(=O)SCF)[C@@]2(C)Cc3cnn(-c4cccc(C(=O)NCC(N)=O)c4)c3C=C12 [Example 30, (1R,3aS,3bS,5S, 10aR,10bS,11S,12aS)-7-{3-[(2-amino-2-oxoethyl)carbamoyl]phenyl}-1-{[(fluoromethyl)sulfanyl]carbonyl}-11-hydroxy-5,10a,12a-trimethyl-1,2,3,3a,3b,4,5,7,10, 10a,10b,11,12,12a-tetradecahydrocyclo-penta[5,6]naphtho [1,2-f]indazol-1-yl (2R)-tetrahydrofuran-2-carboxylate] | 2.2
C[C@H]1C[C@@H]2[C@H]([C@@H](O)C[C@@]3(C)[C@H]2CC[C@]3(OC(=O)C2CC2)C(=O)SCF)[C@@]2(C)Cc3cnn(-c4cccc(C(=O)NCC(N)=O)c4)c3C=C12 [Example 31, (1R,3aS,3bS,5S, 10aR,10bS,11S,12aS)-7-{3-[(2-amino-2-oxoethyl)carbamoyl]phenyl}-1-{(fluoromethyl)sulfanyl] carbonyl}-11-hydroxy-5,10a,12a-trimethyl-1,2,3,3a,3b,4,5,7,10, 10a,10b,11,12,12a-tetradecahydrocyclo-penta[5,6]naphtho [1,2-f]indazol-1-yl cyclopropanecarboxylate] | 1.2
CCC(=O)O[C@]1(C(=O)SCF)CC[C@H]2[C@@H]3C[C@H](C)C4=Cc5c(cnn5-c5cccc(C(=O)NCC(N)=O)c5)C[C@]4(C)[C@H]3[C@@H](O)C[C@@]21C [Example 37, (1R,3aS,3bS,5S,10aR, 10bS,11S,12aS)-7-{3-[(2-amino-2-oxoethyl)carbamoyl]phenyl}-1-{[(fluoromethyl)sulfanyl]carbonyl}-11-hydroxy-5,10a, 12a-trimethyl-1,2,3,3a,3b,4,5,7,10, 10a,10b,11,12,12a-tetradecahydrocyclo-penta[5,6]naphtho [1,2-f]indazol-1-yl propanoate] | 7.1
COCC(=O)O[C@]1(C(=O)SCF)CC[C@H]2[C@@H]3C[C@H](C)C4=Cc5c(cnn5-c5cccc(C(=O)NCC(N)=O)c5)C[C@]4(C)[C@H]3[C@@H](O)C[C@@]21C [Example 38, (1R,3aS,3bS,5S, 10aR,10bS,11S,12aS)-7-{3-[(2-amino-2-oxoethyl)carbamoyl]phenyl}-1-{[(fluoromethyl)sulfanyl]carbonyl}-11-hydroxy-5,10a, 12a-trimethyl-1,2,3,3a,3b,4,5,7,10, 10a,10b,11,12,12a-tetradecahydrocyclo-penta[5,6]naphtho [1,2-f]indazol-1-yl methoxyacetate] | 8.3

More lines, now with the values ahead:

IC50 [nM] | Structure (SMILES)
0.47 | CCNC(=O)c1cccc(-n2ncc3c2C=C2CC[C@H]4[C@@H]5C[C@@H](C)[C@](OC(=O)COC)(C(=O)SCF)[C@@]5(C)C[C@H](O)[C@]4(F)[C@@]2(C)C3)c1 [Example 27, (1R,2R,3aS,3bS, 10aS,10bR,11S,12aS)-7-[3-(ethylcarbamoyl)phenyl]-10b-fluoro-1-{[(fluoro-methyl)sulfanyl]-carbonyl}-11-hydroxy-2,10a,12a-trimethyl-1,2,3,3a, 3b,4,5,7,10,10a,- 10b,11,12,12a-tetradecahydrocyclo-penta[5,6]naphtho [1,2-f]indazol-1-yl methoxyacetate]
2.3 | CNC(=O)c1cccc(-n2ncc3c2C=C2CC[C@H]4[C@@H]5C[C@@H](C)[C@](OC(=O)COC)(C(=O)SCF)[C@@]5(C)C[C@H](O)[C@]4(F)[C@@]2(C)C3)c1 [Example 28, 1R,2R,3aS,3bS, 10aS,10bR,11S,12aS)-10b-fluoro-1-{[(fluoromethyl)sulfanyl] carbonyl}-11-hydroxy-2,10a,12a-trimethyl-7[3-(methylcarbamoyl)phenyl]-1,2,3,3a,3b,4,5,7,10, 10a,10b,11,12,12a-tetradecahydrocyclo-penta[5,6]naphtho [1,2-f]indazol-1-yl methoxyacetate]
2.5 | CCC(=O)O[C@]1(C(=O)SCF)CC[C@H]2[C@@H]3CCC4=Cc5c(cnn5-c5cccc(C(=O)N[C@H](C)C(N)=O)c5)C[C@]4(C)[C@@]3(F)[C@@H](O)C[C@@]21C [Example 32, (1R,3aS,3bS,10aS, 10bR,11S,12aS)-7-(3-{[(1R)-2-amino-1-methyl-2-oxoethyl]carbamoyl}phenyl)-10b-fluoro-1-{[(fluoromethyl)-sulfanyl]carbonyl}-11-hydroxy-10a,12a-dimethyl-1,2,3,3a,3b,4,5,7,10, 10a,10b,11,12,12a-tetradecahydrocyclo-penta[5,6]naphtho [1,2-f]indazol-1-yl propanoate]
5.2 | CCC(=O)O[C@]1(C(=O)SCF)CC[C@H]2[C@@H]3CCC4=Cc5c(cnn5-c5cccc(C(=O)NC)c5)C[C@]4(C)[C@@]3(F)[C@@H](O)C[C@@]21C [Example 33, (1R,3aS,3bS,10aS, 10bR,11S,12aS)-10b-fluoro-1-{[(fluoromethyl)sulfanyl]carbonyl}-11-hydroxy-10a,12a-dimethyl-7[3-(methylcarbamoyl)phenyl]-1,2,3,3a,3b,4,5,7,10, 10a,10b,11,12,12a-tetradecahydrocyclo-penta[5,6]naphtho [1,2-f]indazol-1-yl propanoate]
3.8 | CCC(=O)O[C@]1(C(=O)SCF)CC[C@H]2[C@@H]3CCC4=Cc5c(cnn5-c5cccc(C(=O)N(C)CC(N)=O)c5)C[C@]4(C)[C@@]3(F)[C@@H](O)C[C@@]21C [Example 34, (1R,3aS,3bS,10aS, 10bR,11S,12aS)-7-{3-[(2-amino-2-oxoethyl)(methyl)carbamoyl]phenyl}-10b-fluoro-1-{[(fluoromethyl)sulfanyl]carbonyl}-11-hydroxy-10a,12a-dimethyl-1,2,3,3a,3b,4,5,7,10, 10a,10b,11,12,12a-tetradecahydrocyclo-penta[5,6]naphtho [1,2-f]indazol-1-yl propanoate]
6.5 | CCC(=O)O[C@]1(C(=O)SCF)CC[C@H]2[C@@H]3CCC4=Cc5c(cnn5-c5cccc(C(=O)N[C@@H](C)C(N)=O)c5)C[C@]4(C)[C@@]3(F)[C@@H](O)C[C@@]21C [Example 35, (1R,3aS,3bS,10aS, 10bR,11S,12aS)-7-(3-{[(1S)-2-amino-1-methyl-2-oxoethyl]carbamoyl}phenyl)-10b-fluoro-1-{[(fluoromethyl)sulfanyl]carbonyl}-11-hydroxy-10a,12a-dimethyl-1,2,3,3a,3b,4,5,7,10,10a, 10b,11,12,12a-tetradecahydrocyclo-penta[5,6]naphtho [1,2-f]indazol-1-yl propanoate]
0.84 | CCC(=O)O[C@]1(C(=O)SCF)CC[C@H]2[C@@H]3CCC4=Cc5c(cnn5-c5cccc(C(=O)NCC(=O)NC)c5)C[C@]4(C)[C@@]3(F)[C@@H](O)C[C@@]21C [Example 36, (1R,3aS,3bS,10aS, 10bR,11S,12aS)-10b-fluoro-1-{[(fluoromethyl)sulfanyl]carbonyl}-11-hydroxy-10a,12a-dimethyl-7-(3-{[2-(methylamino)-2-oxoethyl]carbamoyl}phenyl)-1,2,3,3a,3b,4,5,7,10,10a, 10b,11,12,12a-tetradecahydrocyclo-penta[5,6]naphtho [1,2-f]indazol-1-yl propanoate]
